According to US6716878B1, “Antimicrobial agents” (Vernalis (Oxford) Limited, priority 1999, dated 2004):
Converted amounts (≈) assume the structure as drawn. Where two headings read alike, the source gives them in different places.

Key:
[1] = test system: Staphylococcus capitis (American Type Culture Collection number 35661); assay: Minimal inhibitory concentration (MIC) against Staphylococcus capitis, two fold serial dilutions in 2xYT broth; assay type: cell-based; details: ATCC35661, Staphylococcus capitis ATCC 35661, 37° C., 18 hours, lowest drug concentration that inhibited visible growth, read-out: MIC (S. capitis)
Procedure: (§1) Where MIC values are quoted for the compounds of the examples, those results were obtained by the method described in the Biological Example.
(§2) Minimal inhibitory concentrations (MIC) of inhibitors against E. coli strain DH5α (Genotype; F-φ80d/acZΔM 15Δ(lacZYA-argF)U 169 deoR recA1 endA1 hsdR17(rk^−, mk^+)phoA supE44λ^−thi-1 gyrA96 re/A1) obtained from GibcoBRL Life Technologies, or Staphylococcus capitis (American Type Culture Collection number 35661) were determined as follows. Stock solutions of each test compound were prepared by dissolution of the compound in dimethylsulfoxide at 10 mM. For the determination of the minimal inhibitory concentration, two fold serial dilutions were prepared in 2×YT broth (typtone 16 g/l, yeast extract 10 g/l, sodium chloride 5 g/l obtained from BIO 101 Inc, 1070 Joshua Way, Vista, Calif. 92083, USA) to yield 0.05 ml compound-containing medium per well. Inocula were prepared from cultures grown overnight in 2×YT broth at 37° C. Cell densities were adjusted to absorbance at 660 nm (a660)=0.1; the optical density-standardised preparations were diluted 1:1000 in 2×YT broth; and each well inoculated with 0.05 ml of the diluted bacteria. Microtiter plates were incubated at 37° C. for 18 hours in a humidified incubator. The MIC (μM) was recorded as the lowest drug concentration that inhibited visible growth.

E. coli strain DH5α = assay: Minimal inhibitory concentration (MIC) against E. coli, two fold serial dilutions in 2xYT broth; assay type: cell-based; details: Escherichia coli, read-out: MIC (E. coli)
Procedure: as §1, §2

[2] = E. coli strain DH5α, 2xYT broth, 37° C., 18 hours, lowest drug concentration that inhibited visible growth

Structure (SMILES) | MIC [1] | MIC (E. coli strain DH5α; [2]) | MIC (E. coli strain DH5α; 18 h)
CCCC[C@H](CN(O)C=O)C(=O)N[C@H](C(=O)c1ccc(F)cc1)C(C)(C)C [Example 1, 2(R)-[(N-Formyl-N-hydroxyamino)-methyl]-hexanoic Acid-(1′(S)-(4-fluorobenzoyl)-2′,2′-dimethylpropyl)amide] | 25 µM (≈ 9.51 µg/mL) | 12.5 µM (≈ 4.76 µg/mL) | 
CCCC[C@H](CN(O)C=O)C(=O)N[C@H](C(=O)c1ccc(OC)cc1)C(C)(C)C [Example 2] | 6.25 µM (≈ 2.45 µg/mL) | 12.5 µM (≈ 4.91 µg/mL) | 
CCCC[C@H](CN(O)C=O)C(=O)N[C@H](C(=O)C1CCCCC1)C(C)C [Example 3, 2(R)-[(N-Formyl-N-hydroxyamino)-methyl]-hexanoic Acid-(1′(S)-cyclohexanecarbonyl-2′-methylpropyl)amide] | 25 µM (≈ 8.86 µg/mL) | 50 µM (≈ 17.7 µg/mL) | 
CC(C)(C)[C@H](NC(=O)[C@H](CC1CCCC1)CN(O)C=O)C(=O)c1ccc(F)cc1 [Example 4, 3-Cyclopentyl-2(R)-[(N-formyl-N-hydroxyamino)-methyl]-N-[1′(S)-(4-fluorobenzoyl)-2′,2′-dimethylpropyl]propionamide] | 3.1 µM (≈ 1.26 µg/mL) | 3.1 µM (≈ 1.26 µg/mL) | 
COc1ccc(C(=O)[C@@H](NC(=O)[C@H](CC2CCCC2)CN(O)C=O)C(C)(C)C)cc1 [Example 5, 3-Cyclopentyl-2(R)-[(N-formyl-N-hydroxyamino)-methyl]-N-[1′(S)-(4-methoxybenzoyl)-2′,2′-dimethylpropyl]propionamide] | 1.6 µM (≈ 0.67 µg/mL) | 3.1 µM (≈ 1.3 µg/mL) | 
CCCC[C@H](CN(O)C=O)C(=O)N[C@H](C(=O)c1nccn1C)C(C)(C)C [Example 6, 2(R)-[(N-Formyl-N-hydroxyamino)-methyl]-hexanoic Acid-[2,2-dimethyl-1(S)(1-methyl-1H-imidazole-2-carbonyl)-propyl]-amide] | 200 µM (≈ 73.3 µg/mL) | 25 µM (≈ 9.16 µg/mL) | 
CCCC[C@H](CN(O)C=O)C(=O)N[C@H](C(=O)c1ccccn1)C(C)(C)C [Example 7, 2(R)-[(N-Formyl-N-hydroxyamino)-methyl]-hexanoic Acid-[2,2-dimethyl-1(S)-(pyridine-2-carbonyl)-propyl]-amide] | 50 µM (≈ 18.2 µg/mL) | 12.5 µM (≈ 4.54 µg/mL) | 
CCCC[C@H](CN(O)C=O)C(=O)N[C@H](C(=O)c1cc2ccccc2o1)C(C)(C)C [Example 8, 2(R)-[(N-Formyl-N-hydroxyamino)-methyl]-hexanoic Acid-(1′(S)-(benzofuran-2-carbonyl)-2′,2′-dimethylpropyl)amide] | 1.6 µM (≈ 0.644 µg/mL) | 6.25 µM (≈ 2.52 µg/mL) | 
CC(C)(C)[C@H](NC(=O)[C@H](CC1CCCC1)CN(O)C=O)C(=O)c1cc2ccccc2o1 [Example 9, N-[1(S)-(Benzofuran-2-carbonyl)-2,2-dimethylpropyl]-3′-cyclopentyl-2′(R)-[(N-formyl-N-hydroxyamino)-methyl]-propionamide] | 0.7 µM (≈ 0.3 µg/mL) | 6.25 µM (≈ 2.68 µg/mL) | 
CCCC[C@H](CN(O)C=O)C(=O)N[C@H](C(=O)c1ccc(OC)cc1OC)C(C)(C)C [Example 11, 2(R)-[(N-Formyl-N-hydroxyamino)-methyl]-hexanoic Acid [1′-(2,4-dimethoxy-benzoyl)-2′,2′-dimethylpropyl]-amide] | 25 µM (≈ 10.6 µg/mL) | 25 µM (≈ 10.6 µg/mL) | 
CCCC[C@H](CN(O)C=O)C(=O)N[C@H](C(=O)c1ccc(O)cc1)C(C)(C)C [Example 12, 2(R)-[(N-Formyl-N-hydroxyamino)-methyl]-hexanoic Acid [1′(S)-(4-hydroxy-benzoyl)-2′,2′-dimethylpropyl]-amide] | 12 µM (≈ 4.54 µg/mL) | 6.25 µM (≈ 2.37 µg/mL) | 
CCCC[C@H](CN(O)C=O)C(=O)N[C@H](C(=O)Cc1ccccn1)C(C)(C)C [Example 15, 2(R)-[(N-Formyl-N-hydroxyamino)-methyl]-hexanoic Acid-(1′(S)-tert-butyl-2′-oxo-3′-pyridin-2-yl-propyl) Amide] | 100 µM (≈ 37.7 µg/mL) |  | 
CCCC[C@H](CN(O)C=O)C(=O)N[C@H](C(=O)c1ccc(S(C)(=O)=O)cc1)C(C)(C)C [Example 16, 2(R)-[(N-Formyl-N-hydroxyamino)-methyl]-hexanoic Acid [1′(S)-(4-methanesulfonyl-benzoyl)-2′,2′-dimethyl-propyl]amide] | 25 µM (≈ 11 µg/mL) | 6.25 µM (≈ 2.75 µg/mL) | 
COc1ccc(C(=O)[C@H](NC(=O)[C@@H](CC2CCCC2)CN(O)C=O)C(C)(C)C)cc1 [Example 17, 3-Cyclopentyl-2(S)-[(N-formyl-N-hydroxyamino)-methyl]-N-[1′(R)-(4-methoxybenzoyl)-2′,2′-dimethylpropyl]propionamide] | 25 µM (≈ 10.5 µg/mL) | 100 µM (≈ 41.9 µg/mL) | 
CCCC[C@H](CN(O)C=O)C(=O)N[C@H](C(=O)c1ccco1)C(C)(C)C [Example 18, 2(R)-[(N-Formyl-N-hydroxyamino)-methyl]-hexanoic Acid-(1′(S)-(furan-2-carbonyl)-2′,2′-dimethylpropyl)amide] | 12.5 µM (≈ 4.41 µg/mL) | 12.5 µM (≈ 4.41 µg/mL) | 
CCCC[C@H](CN(O)C=O)C(=O)N[C@H](C(=O)c1cccn1C)C(C)(C)C [Example 19, 2(R)-[(N-Formyl-N-hydroxyamino)-methyl]-hexanoic Acid-(2′,2′-dimethyl-1′(S)-(1-methyl-1H-pyrrole-2-carbonyl)-propyl)amide] | 12.5 µM (≈ 4.57 µg/mL) | 12.5 µM (≈ 4.57 µg/mL) | 
CCCC[C@H](CN(O)C=O)C(=O)N[C@H](C(=O)c1ccc(N)cc1)C(C)(C)C [Example 20, 2(R)-[(N-Formyl-N-hydroxyamino)-methyl]-hexanoic Acid-(1′(S)-(4-aminobenzoyl)-2′,2′-dimethylpropyl)amide] | 12.5 µM (≈ 4.72 µg/mL) | 6.25 µM (≈ 2.36 µg/mL) | 
CCCC[C@H](CN(O)C=O)C(=O)N[C@H](C(=O)c1ccc(NC(=O)C(F)(F)F)cc1)C(C)(C)C [Example 21, 2(R)-[(N-Formyl-N-hydroxyamino)-methyl]-hexanoic Acid-(2′,2′-dimethyl-1′(S)-[4-(2,2,2-trifluoroacetylamino)-benzoyl]-propyl)amide] | 6.25 µM (≈ 2.96 µg/mL) |  | 6.25 µM (≈ 2.96 µg/mL)
CCCC[C@H](CN(O)C=O)C(=O)N[C@H](C(=O)c1ccc(NC(C)=O)cc1)C(C)(C)C [Example 22, 2(R)-[(N-Formyl-N-hydroxyamino)-methyl]-hexanoic Acid-(1′(S)-(4-acetylaminobenzoyl)-2′,2′-dimethylpropyl)amide] | 3.1 µM (≈ 1.3 µg/mL) | 12.5 µM (≈ 5.24 µg/mL) | 
CCCC[C@H](CN(O)C=O)C(=O)N[C@H](C(=O)c1ccc(NS(C)(=O)=O)cc1)C(C)(C)C [Example 23, 2(R)-[(N-Formyl-N-hydroxyamino)-methyl]-hexanoic Acid-(1′(S)-(4-methanesulfonylaminobenzoyl)-2′,2′-dimethylpropyl)amide] | 3.1 µM (≈ 1.41 µg/mL) | 50 µM (≈ 22.8 µg/mL) | 
CCCC[C@H](CN(O)C=O)C(=O)N[C@H](C(=O)c1ccc(N2CCOCC2)cc1)C(C)(C)C [Example 24, 2(R)-[(N-Formyl-N-hydroxyamino)-methyl]-hexanoic Acid-(2′,2′-dimethyl-1′(S)-(4-morpholin-4-ylbenzoyl)-propyl)amide] | 3.1 µM (≈ 1.39 µg/mL) | 6.25 µM (≈ 2.8 µg/mL) | 
CCCC[C@H](CN(O)C=O)C(=O)N[C@H](C(=O)c1ccc(N2CCN(Cc3ccccc3)CC2)cc1)C(C)(C)C [Example 25, 2(R)-[(N-Formyl-N-hydroxyamino)-methyl]-hexanoic Acid-(1′(S)-[4-(4-benzylpiperazin-1-yl)-benzoyl]-2′,2′-dimethylpropyl)amide] | 3.1 µM (≈ 1.66 µg/mL) | 50 µM (≈ 26.8 µg/mL) | 
CCCC[C@H](CN(O)C=O)C(=O)N[C@H](C(=O)c1ccc(N2CCNCC2)cc1)C(C)(C)C [Example 26, 2(R)-[(N-Formyl-N-hydroxyamino)-methyl]-hexanoic Acid-(2′,2′-dimethyl-1′(S)-(4-piperazin-1-yl-benzoyl)-propyl)amide] | 12.5 µM (≈ 5.58 µg/mL) | 3.1 µM (≈ 1.38 µg/mL) | 
CCCC[C@H](CN(O)C=O)C(=O)N[C@H](C(=O)c1ccc(N2CCN(C)CC2)cc1)C(C)(C)C [Example 27, 2(R)-[(N-Formyl-N-hydroxyamino)-methyl]-hexanoic Acid-(2′,2′-dimethyl-1′(S)-[4-(4-methylpiperazin-1-yl)benzoyl]-propyl)amide] | 6.25 µM (≈ 2.88 µg/mL) | 6.25 µM (≈ 2.88 µg/mL) | 
CCCC[C@H](CN(O)C=O)C(=O)N[C@H](C(=O)c1ccc(N2CCN(c3ncccn3)CC2)cc1)C(C)(C)C [Example 28, 2(R)-[(N-Formyl-N-hydroxyamino)-methyl]-hexanoic Acid-(2′,2′-dimethyl-1′(S)-[4-(4-pyrimidin-2-yl-piperazin-1-yl)-benzoyl]-propyl)amide] | 1.6 µM (≈ 0.839 µg/mL) | 12.5 µM (≈ 6.56 µg/mL) | 
CCCC[C@H](CN(O)C=O)C(=O)N[C@H](C(=O)c1ccc(N2CCN(C3=NCCCN3)CC2)cc1)C(C)(C)C [Example 29, 2(R)-[(N-Formyl-N-hydroxyamino)-methyl]-hexanoic Acid-(2′,2′-dimethyl-1′(S)-{4-[4-(1,4,5,6-tetrahydropyrimidin-2-yl)-piperazin-1-yl]-benzoyl}-propyl)amide] | 6.25 µM (≈ 3.3 µg/mL) | 50 µM (≈ 26.4 µg/mL) | 
CCCC[C@H](CN(O)C=O)C(=O)N[C@H](C(=O)c1ccc(N(CCC)CCC)cc1)C(C)(C)C [Example 30, 2(R)-[(N-Formyl-N-hydroxyamino)-methyl]-hexanoic Acid-(1′(S)-(4-dipropylaminobenzoyl)-2′,2′-dimethylpropyl)amide] | 3.1 µM (≈ 1.43 µg/mL) | 100 µM (≈ 46.2 µg/mL) | 
